Experimental data published in US20170129903A1, “COMPOUNDS COMPRISING 1,1a,2,5a-TETRAHYDROSPIRO[INDOLE-3,2a-PYRROLE]-2,5a-DIONE SYSTEM AS INHIBITORS P53-MDM2 PROTEIN-PROTEIN INTERACTION” (ADAMED SP. Z O.O., priority 2014, published 2017).

Tests used:
[1] = tested on: SJSA-1 osteosarcoma cell line; assay: MTT cell viability assay; format: cell-based; conditions: Homo sapiens, SJSA-1, 72 h, 72 h incubation, average of 2-5 experiments
Experimental: The effect of the invented p53-Mdm2 inhibitors on cell viability has been assessed using MTT assay. It is a colorimetric assay that measures conversion of tetrazolium ring of the soluble yellow dye (MTT) into insoluble purple formazan. This process is catalysed solely in mitochondrial dehydrogenases of living cells.
Cells were seeded on 96-well plates and then treated with successive dilutions of tested compounds. After 72 h incubation, MTT was added to the final concentration 0.5 mg/ml. The cells were further incubated for the next 4 h. Then the solution was drained and the remaining formazan crystals were dissolved in 100 μl DMSO. […] All the MTT experiments were independently repeated 2-5 times. Dose-dependent binding curves and IC50 values were calculated using GraphPad Prism 5.

[2] = target: T1, p53-Mdm2 interaction (N-terminal domain of Mdm2 protein, amino acids 1-111) (Homo sapiens, UniProt Q00987); assay: Fluorescence polarization (FP) binding assay of p53-Mdm2 interaction; conditions: FP assay, 130 nM Mdm2, FAM-labelled p53 peptide; Ki transformed from IC50 using Kenakin equation
T1 construct: N-terminal domain of Mdm2 protein (amino acids 1-111)
T1 sequence (Q00987 1-111): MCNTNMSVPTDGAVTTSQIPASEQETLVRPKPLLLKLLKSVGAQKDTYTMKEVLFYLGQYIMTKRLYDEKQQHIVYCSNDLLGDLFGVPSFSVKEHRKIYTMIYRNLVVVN
Experimental: The inhibition of p53-Mdm2 interaction was measured using a fluorescence polarization (FP) binding assay. FP measures the rotational movement of molecules in a homogenous suspension. For this assay, N-terminal domain of Mdm2 protein (amino acids 1-111) is combined with a fluorescein-labelled (FAM) peptide derived from p53 trans-activation domain. Upon excitation of the fluorescent ligand with linearly polarized light, […]. If the peptide is bound by Mdm2, rotation will slow down and the perpendicular component will decrease. Disruption of the formation of the peptide-Mdm2 complex due to an inhibitor molecule binding to the p53 binding site of Mdm2 results in faster rotation of the peptide.
Fluorescence polarization experiments were read on Tecan Infinite M1000 reader with the 470 nm excitation and 520 nm emission filters for fluorescein. The fluorescence polarization was measured in black 96-well plates (Corning, CLS3991) in room temperature. Purity of Mdm2 was controlled at >95%. Reaction buffer was optimized by adding 5 mM DTT and 0.1% zwitterionic detergent CHAPS to reduce effect of nonspecific interactions.
The test was performed by combining successive dilution of compounds diluted in dimethyl sulfoxide (DMSO, 5% final concentration) with 130 nM Mdm2 in reaction buffer (PBS, 0.1% CHAPS, 5 mM DTT (dithiothreitol)). After 15 minutes of incubation in room temperature […] FAM-labelled peptide was added. Final reading was performed after 90 minutes of incubation. Dose-dependent binding curves and IC50 values were calculated using GraphPad Prism5 and next transformed to Ki values using Kenakin equation.

Row | IC50 [1] | Ki [2] | Structure (SMILES)
1 | 0.3 µM | 4 nM | COc1ccc(N)cc1-n1cc2c(c1C(C)C)C1(C(=O)Nc3cc(Cl)ccc31)N(c1cc(Cl)ccc1C)C2=O (stereo not shown) [Compound 96, 5′-(5-amino-2-methoxyphenyl)-6-chloro-2′-(5-chloro-2-methylphenyl)-6′-(propan-2-yl)-1,2,3′,5′-tetrahydro-2′H-spiro [indole-3,1′-pyrrolo[3,4-c]pyrrole]-2,3′-dione]
2 | 0.22 µM | 1.9 nM | COc1ccccc1-n1nc2c(c1C(C)C)[C@@]1(C(=O)Nc3cc(Cl)ccc31)N(c1cc(Cl)ccc1C)C2=O [Compound 65, (3S)-6-chloro-5′-(5-chloro-2-methyl-phenyl)-2′-(2-methoxyphenyl)-3′-(propan-2-yl)-1,2,5′,6′-tetrahydro-2′H-spiro[indole-3,4′-pyrrolo[3,4-c]pyrazole]-2,6′-dione]
3 | 0.53 µM | 4.7 nM | COc1ccccc1-n1nc2c(c1C(C)C)C1(C(=O)Nc3cc(Cl)ccc31)N(c1cc(Cl)ccc1C)C2=O (stereo not shown) [Compound 31, 6-chloro-5′-(5-chloro-2-methylphenyl)-2′-(2-methoxyphenyl)-3′-(propan-2-yl)-1,2,5′,6′-tetrahydro-2′H-spiro[indole-3,4′-pyrrolo[3,4-c]pyrazole]-2,6′-dione]
4 | 1.07 µM | 6.6 nM | COc1ccccc1-n1cc2c(c1C(C)C)C1(C(=O)Nc3cc(Cl)ccc31)N(c1cc(Cl)ccc1NS(C)(=O)=O)C2=O (stereo not shown) [Compound 92, N-{4-chloro-2-[6-chloro-5′-(2-methoxy-phenyl)-2,3′-dioxo-6′-(propan-2-yl)-1,2,3′,5′-tetrahydro-2′H-spiro[indole-3,1′-pyrrolo[3,4-c]pyrrole]-2′-yl]phenyl} methanesulfonamide]
5 | 12.4 µM | 86 nM | CCc1ccccc1-n1nc2c(c1C(C)C)C1(C(=O)Nc3cc(Cl)ccc31)N(c1cc(Cl)ccc1C)C2=O (stereo not shown) [Compound 67, 6-chloro-5′-(5-chloro-2-methylphenyl)-2′-(2-ethylphenyl)-3′-(propan-2-yl)-1,2,5′,6′-tetrahydro-2′H-spiro[indole-3,4′-pyrrolo [3,4-c]pyrazole]-2,6′-dione]
6 | 6.35 µM | 46 nM | Cc1ccc(Cl)cc1N1C(=O)c2nn(-c3ccccc3C)c(C(C)C)c2C12C(=O)Nc1cc(Cl)ccc12 (stereo not shown) [Compound 68, 6-chloro-5′-(5-chloro-2-methylphenyl)-2′-(2-methylphenyl)-3′-(propan-2-yl)-1,2,5′,6′-tetrahydro-2′H-spiro[indole-3,4′-pyrrolo[3,4-c]pyrazole]-2,6′-dione]
7 | 6.19 µM | 33 nM | COc1ccccc1-n1cc2c(c1C(C)C)C1(C(=O)Nc3cc(Cl)ccc31)N(c1cc(Cl)ccc1[N+](=O)[O-])C2=O (stereo not shown) [Compound 90, 6-chloro-2′-(5-chloro-2-nitrophenyl)-5′-(2-methoxyphenyl)-6′-(propan-2-yl)-1,2,3′,5′-tetrahydro-2′H-spiro[indole-3,1′-pyrrolo [3,4-c]pyrrole]-2,3′-dione]
8 | 0.36 µM | 3.4 nM | COC(=O)c1ccc(OC)c(-n2nc3c(c2C(C)C)C2(C(=O)Nc4cc(Cl)ccc42)N(c2cc(Cl)ccc2C)C3=O)c1 (stereo not shown) [Compound 78, methyl 3-[6-chloro-5′-(5-chloro-2-methylphenyl)-2,6′-dioxo-3′-(propan-2-yl)-1,2,5′,6′-tetrahydro-2′H-spiro[indole-3,4′-pyrrolo[3,4-c]pyrazol]-2′-yl]-4-methoxybenzoate]
9 | 9.98 µM | 4.3 nM | COc1ccccc1-n1cc2c(c1C(C)C)C1(C(=O)Nc3cc(Cl)ccc31)N(c1cc(Cl)ccc1C(=O)O)C2=O (stereo not shown) [Compound 105, 4-chloro-2-[6-chloro-5′-(2-methoxyphenyl)-2,3′-dioxo-6′-(propan-2-yl)-1,2,3′,5′-tetrahydro-2′H-spiro[indole-3,1′-pyrrolo[3,4-c]pyrrole]-2′-yl]benzoic acid]

The next lines start with the molecule.

Row | Structure (SMILES) | IC50 [1] | Ki [2]
10 | COc1ccc(C(=O)NCCO)cc1-n1cc2c(c1C(C)C)C1(C(=O)Nc3cc(Cl)ccc31)N(c1cc(Cl)ccc1C)C2=O (stereo not shown) [Compound 100, 3-[6-chloro-2′-(5-chloro-2-methylphenyl)-2,3′-dioxo-6′-(propan-2-yl)-1,2,3′,5′-tetrahydro-2′H-spiro[indole-3,1′-pyrrolo [3,4-c]pyrrole]-5′-yl]-N-(2-hydroxyethyl)-4-methoxybenzamide] | 1.21 µM | 3.5 nM
11 | Cc1ccc(Cl)cc1N1C(=O)c2cn(-c3cccc4c3OCO4)c(C(C)C)c2C12C(=O)Nc1cc(Cl)ccc12 (stereo not shown) [Compound 94, 5′-(2H-1,3-benzodioxol-4-yl)-6-chloro-2′-(5-chloro-2-methylphenyl)-6′-(propan-2-yl)-1,2,3′,5′-tetrahydro-2′H-spiro[indole-3,1′-pyrrolo[3,4-c]pyrrole]-2,3′-dione] | 0.93 µM | 9.6 nM
12 | COc1ccc(NC(C)=O)cc1-n1cc2c(c1C(C)C)C1(C(=O)Nc3cc(Cl)ccc31)N(c1cc(Cl)ccc1C)C2=O (stereo not shown) [Compound 97, N-{3-[6-chloro-2′-(5-chloro-2-methylphenyl)-2,3′-dioxo-6′-(propan-2-yl)-1,2,3′,5′-tetrahydro-2′H-spiro[indole-3,1′-pyrrolo[3,4-c]pyrrole]-5′-yl]-4-methoxyphenyl}acetamide] | 0.3 µM | 3.4 nM
13 | CN(C)C(=O)C1CCCC1Cn1nc2c(c1C1(C)CC1)C1(C(=O)Nc3cc(Cl)ccc31)N(c1cccc(Cl)c1)C2=O (stereo not shown) [Compound 29, 2-[6-chloro-5′-(3-chlorophenyl)-3′-(1-methylcyclopropyl)-2,6′-dioxo-1,2,5′,6′-tetrahydro-2′H-spiro[indole-3,4′-pyrrolo [3,4-c]pyrazole]-2′-ylmethyl]-N,N-dimethylcyclopentane-1-carboxamide] | 48.8 µM | 358 nM
14 | NC(=O)CSC1=C(c2ccccc2)C2(C(=O)Nc3cc(Cl)ccc32)N(c2cccc(Cl)c2)C1=O (stereo not shown) [Compound 53, 2-[6-chloro-1′-(3-chlorophenyl)-2,5′-dioxo-3′-phenyl-1,1′,2,5′-tetrahydrospiro [indole-3,2′-pyrrole]-4′-ylsulfanyl] acetamide] | 29.6 µM | 581 nM
15 | CC(C)c1[nH]nc2c1C1(C(=O)Nc3cc(Cl)ccc31)N(c1cc(Cl)ccc1O)C2=O (stereo not shown) [Compound 24, 6-chloro-5′-(5-chloro-2-hydroxyphenyl)-3′-(propan-2-yl)-1,2,5′,6′-tetrahydro-2′H-spiro[indole-3,4′-pyrrolo[3,4-c]pyrazole]-2,6′-dione] | 33.5 µM | 54 nM
16 | Cc1ccc(Cl)cc1N1C(=O)C(O)=C(c2ccccc2)C12C(=O)Nc1cc(Cl)ccc12 (stereo not shown) [Compound 47, 6-chloro-1′-(5-chloro-2-methylphenyl)-4′-hydroxy-3′-phenyl-1,1′,2,5′-tetrahydrospiro[indole-3,2′-pyrrole]-2,5′-dione] | 44.5 µM | 29 nM
17 | COc1ccc(-n2cc3c(c2C(C)C)[C@@]2(C(=O)Nc4cc(Cl)ccc42)N(c2cc(Cl)cnc2C)C3=O)c(OC)c1 [Compound 111, (3S)-6-chloro-2′-(5-chloro-2-methyl-pyridin-3-yl)-5′-(2,4-dimethoxyphenyl)-6′-(propan-2-yl)-1,2,3′,5′-tetrahydro-2′H-spiro[indole-3,1′-pyrrolo[3,4-c]pyrrole]-2,3′-dione] | 0.12 µM | 2.8 nM
18 | COc1ccc(CSC2=C(O)C(=O)N(c3cccc(Cl)c3)C23C(=O)Nc2cc(Cl)ccc23)cc1 (stereo not shown) [Compound 59, 6-chloro-1′-(3-chlorophenyl)-4′-hydroxy-3′-{[(4-methoxyphenyl)methyl]sulfanyl}-1,1′,2,5′-tetrahydrospiro[indole-3,2′-pyrrole]-2,5′-dione] | 37.5 µM | 178 nM
19 | COc1ccc(NC(C)=O)cc1-n1cc2c(c1C(C)C)[C@@]1(C(=O)Nc3cc(Cl)ccc31)N(c1cc(Cl)ccc1C)C2=O [Compound 108, N-{3-[(3S)-6-chloro-2′-(5-chloro-2-methylphenyl)-2,3′-dioxo-6′-(propan-2-yl)-1,2,3′,5′-tetrahydro-2′H-spiro[indole-3,1′-pyrrolo[3,4-c]pyrrole]-5′-yl]-4-methoxyphenyl}acetamide] | 0.35 µM | 1.6 nM
20 | O=C1C(O)=C(C2CCCCC2)C2(C(=O)Nc3cc(Cl)ccc32)N1c1cccc(Cl)c1 (stereo not shown) [Compound 44, 6-chloro-1′-(3-chlorophenyl)-3′-cyclohexyl-4′-hydroxy-1,1′,2,5′-tetrahydrospiro[indole-3,2′-pyrrole]-2,5′-dione] | 18.1 µM | 281 nM
